These results are taken from patent publication US12539292B2, “BRM targeting compounds and associated methods of use” (Arvinas Operations, Inc., priority 2018, dated 2026).

Where two headings read alike, the source gives them in different places. Some results are limits rather than exact numbers.

In this assay the target is T1, BRM (Homo sapiens, UniProt P51531).
T1 construct: In-Cell Western Screen of BRM Degradation in SW1573 Cells; endogenous in cells; host or cells: SW1573
Kind of assay: In-cell Western screen of BRM degradation in SW1573 cells (Dmax and DC50). It counts as cell-based. Summed up:
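Adherent SW1573 cultures exposed to test compounds for 18-20 h were processed for in-cell Western after PFA fixation and detergent permeabilization. BRM degradation was reported as Dmax and DC50.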

[1] abbreviates: BRM degradation, SW1573 cells, Table 2D, read-out: **Dmax (%) (% degraded).
[2] abbreviates: BRM degradation, SW1573 cells, Table 2D, read-out: *DC50.
Setting [3] is: SW1573, % degraded, when tested at the top concentration of between 0.3 and 10 μM, read-out: BRM Dmax (%).
The mark [4] stands for this setting: BRM degradation, SW1573 cells, read-out: DC50.
[5] abbreviates: target protein degradation, read-out: BRM DC50.
[6] abbreviates: BRM degradation, SW1573 cells, when tested at the top concentration of between 0.3 and 10 μM, read-out: Dmax (%) (% degraded).
Where [7] appears, read: BRM degradation, SW1573 cells, tested at the top concentration of between 0.3 and 10 μM, read-out: Dmax (%) (% degraded).

T1 sequence (P51531 whole entry): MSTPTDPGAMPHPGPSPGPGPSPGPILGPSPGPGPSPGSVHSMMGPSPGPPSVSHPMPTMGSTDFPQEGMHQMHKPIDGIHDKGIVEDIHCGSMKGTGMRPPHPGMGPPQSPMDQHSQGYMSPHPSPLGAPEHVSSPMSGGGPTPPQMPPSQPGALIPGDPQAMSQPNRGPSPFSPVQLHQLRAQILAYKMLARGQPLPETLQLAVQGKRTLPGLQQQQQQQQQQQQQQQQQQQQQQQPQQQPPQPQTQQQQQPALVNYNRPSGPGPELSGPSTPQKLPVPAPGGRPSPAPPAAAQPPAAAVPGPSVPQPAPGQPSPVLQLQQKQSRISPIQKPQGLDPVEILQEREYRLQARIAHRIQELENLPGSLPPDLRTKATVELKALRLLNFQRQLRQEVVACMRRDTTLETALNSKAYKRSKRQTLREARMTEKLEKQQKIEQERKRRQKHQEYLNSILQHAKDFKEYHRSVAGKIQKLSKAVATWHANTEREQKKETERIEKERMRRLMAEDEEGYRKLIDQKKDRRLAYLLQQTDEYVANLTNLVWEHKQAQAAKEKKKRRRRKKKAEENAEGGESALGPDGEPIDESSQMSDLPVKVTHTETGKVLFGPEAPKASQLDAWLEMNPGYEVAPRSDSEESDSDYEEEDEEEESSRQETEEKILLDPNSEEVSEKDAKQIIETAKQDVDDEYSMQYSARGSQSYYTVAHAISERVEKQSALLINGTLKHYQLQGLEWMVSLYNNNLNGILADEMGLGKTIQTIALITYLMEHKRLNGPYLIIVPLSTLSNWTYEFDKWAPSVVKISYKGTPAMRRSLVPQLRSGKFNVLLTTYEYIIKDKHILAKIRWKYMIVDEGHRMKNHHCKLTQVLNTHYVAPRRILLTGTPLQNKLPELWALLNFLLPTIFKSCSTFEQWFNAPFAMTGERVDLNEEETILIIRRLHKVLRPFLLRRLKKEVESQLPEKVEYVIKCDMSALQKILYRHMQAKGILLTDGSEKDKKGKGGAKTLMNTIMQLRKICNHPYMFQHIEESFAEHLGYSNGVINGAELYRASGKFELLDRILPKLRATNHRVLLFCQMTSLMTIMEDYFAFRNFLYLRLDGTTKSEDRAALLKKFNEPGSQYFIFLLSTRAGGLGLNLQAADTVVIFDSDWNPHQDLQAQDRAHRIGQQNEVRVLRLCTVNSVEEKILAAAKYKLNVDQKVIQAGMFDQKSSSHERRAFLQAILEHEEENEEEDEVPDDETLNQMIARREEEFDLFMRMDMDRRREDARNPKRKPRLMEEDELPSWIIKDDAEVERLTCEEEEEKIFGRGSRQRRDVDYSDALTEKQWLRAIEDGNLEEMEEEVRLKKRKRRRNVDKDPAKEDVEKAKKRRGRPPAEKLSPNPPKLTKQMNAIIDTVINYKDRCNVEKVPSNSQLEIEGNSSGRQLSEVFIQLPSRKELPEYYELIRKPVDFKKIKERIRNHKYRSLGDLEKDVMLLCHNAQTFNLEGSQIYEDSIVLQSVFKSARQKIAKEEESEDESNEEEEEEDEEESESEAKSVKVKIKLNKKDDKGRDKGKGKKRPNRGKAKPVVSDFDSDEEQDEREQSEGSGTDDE

In the case of `Cc1ncsc1-c1ccc([C@H](C)NC(=O)[C@@H]2C[C@@H](O)CN2C(=O)[C@@H](c2cc(OCC[C@H]3CCN(C[C@H]4C[C@H](Oc5cc(N6C7CCC6CN(c6cc(-c8ccccc8O)nnc6N)C7)ccn5)C4)C[C@@H]3C)no2)C(C)C)cc1` (racemic) [compound 577, (2S,4R)-1-((2R)-2-(3-(2-((3R,4R)-1-(((1r,3R)-3-((4-(3-(3-amino-6-(2-hydroxyphenyl)pyridazin-4-yl)-3,8-diazabicyclo[3.2.1]octan-8-yl)pyridin-2-yl)oxy)cyclobutyl)methyl)-3-methylpiperidin-4-yl)ethoxy)isoxazol-5-yl)-3-methylbutanoyl)-4-hydroxy-N-((S)-1-(4-(4-methylthiazol-5-yl)phenyl)ethyl)pyrrolidine-2-carboxamide], the Dmax under setting [1] was above 75%. For the same compound, the 50% degradation concentration (DC50) under setting [2] is below 2.5 nM. As for `Cc1ncsc1-c1ccc([C@@H](NC(=O)[C@@H]2C[C@@H](O)CN2C(=O)[C@@H](c2cc(OCCN3CCC(O[C@H]4C[C@H](Oc5cc(N6C7CCC6CN(c6cc(-c8ccccc8O)nnc6N)C7)ccn5)C4)CC3)no2)C(C)C)C(=O)N(C)C2CCC2)cc1` [compound 420, (2S,4R)-1-((2R)-2-(3-(2-(4-((1r,3R)-3-((4-(3-(3-amino-6-(2-hydroxyphenyl)pyridazin-4-yl)-3,8-diazabicyclo[3.2.1]octan-8-yl)pyridin-2-yl)oxy)cyclobutoxy)piperidin-1-yl)ethoxy)isoxazol-5-yl)-3-methylbutanoyl)-N-((R)-2-(cyclobutyl(methyl)amino)-1-(4-(4-methylthiazol-5-yl)phenyl)-2-oxoethyl)-4-hydroxypyrrolidine-2-carboxamide], under setting [3], the Dmax was above 75%. The DC50 (degradation of BRM, read-out: BRM DC50) was below 2.5 nM.

Regarding `Cc1ncsc1-c1ccc([C@H](C)NC(=O)[C@@H]2C[C@@H](O)CN2C(=O)[C@H](c2cc(N3CCC4(CCN(C[C@H]5C[C@H](Oc6cc(N7C8CCC7CN(c7cc(-c9ccccc9O)nnc7N)C8)ccn6)C5)CC4)CC3)no2)C(C)C)cc1` [compound 647, (2S,4R)-1-((2S)-2-(3-(9-(((1r,3S)-3-((4-(3-(3-amino-6-(2-hydroxyphenyl)pyridazin-4-yl)-3,8-diazabicyclo[3.2.1]octan-8-yl)pyridin-2-yl)oxy)cyclobutyl)methyl)-3,9-diazaspiro[5.5]undecan-3-yl)isoxazol-5-yl)-3-methylbutanoyl)-4-hydroxy-N-((S)-1-(4-(4-methylthiazol-5-yl)phenyl)ethyl)pyrrolidine-2-carboxamide], the half-maximal degradation concentration (DC50) under setting [4] was above 30 nM. Consider `Cc1nccn1-c1ccc([C@H](C)NC(=O)[C@@H]2C[C@@H](O)CN2C(=O)[C@@H](c2cc(OCCN3CCC(O[C@H]4C[C@H](Oc5cc(N6C7CCC6CN(c6cc(-c8ccccc8O)nnc6N)C7)ccn5)C4)CC3)no2)C(C)C)cn1` [compound 398, (2S,4R)-1-((2R)-2-(3-(2-(4-((1r,3R)-3-((4-(3-(3-amino-6-(2-hydroxyphenyl)pyridazin-4-yl)-3,8-diazabicyclo[3.2.1]octan-8-yl)pyridin-2-yl)oxy)cyclobutoxy)piperidin-1-yl)ethoxy)isoxazol-5-yl)-3-methylbutanoyl)-4-hydroxy-N-((S)-1-(6-(2-methyl-1H-imidazol-1-yl)pyridin-3-yl)ethyl)pyrrolidine-2-carboxamide], for which the Dmax under setting [3] is above 75%. For the same compound, under setting [5], the DC50 was below 2.5 nM. For the compound `Cc1ncsc1-c1cc(F)c([C@H](C)NC(=O)[C@@H]2C[C@@H](O)CN2C(=O)[C@H](c2cc(OCCC3CCN(C[C@H]4C[C@H](Oc5cc(N6C7CCC6CN(c6cc(-c8ccccc8O)nnc6N)C7)ccn5)C4)CC3)no2)C(C)C)cc1F` [compound 551, (2S,4R)-1-((2S)-2-(3-(2-(1-(((1r,3S)-3-((4-(3-(3-amino-6-(2-hydroxyphenyl)pyridazin-4-yl)-3,8-diazabicyclo[3.2.1]octan-8-yl)pyridin-2-yl)oxy)cyclobutyl)methyl)piperidin-4-yl)ethoxy)isoxazol-5-yl)-3-methylbutanoyl)-N-((S)-1-(2,5-difluoro-4-(4-methylthiazol-5-yl)phenyl)ethyl)-4-hydroxypyrrolidine-2-carboxamide], under setting [1], the maximal degradation (Dmax) was above 75%. Besides, the DC50 under setting [2] is below 2.5 nM. Regarding `Cc1ncsc1-c1ccc([C@H](C)NC(=O)[C@@H]2C[C@@H](O)CN2C(=O)[C@@H](c2cc(OCCN3CCC(O[C@H]4C[C@H](Oc5nccc(N6C7CCC6CN(c6cc(-c8ccccc8O)nnc6N)C7)n5)C4)CC3)no2)C(C)C)cc1` [compound 464, (2S,4R)-1-((2R)-2-(3-(2-(4-((1r,3R)-3-((4-(3-(3-amino-6-(2-hydroxyphenyl)pyridazin-4-yl)-3,8-diazabicyclo[3.2.1]octan-8-yl)pyrimidin-2-yl)oxy)cyclobutoxy)piperidin-1-yl)ethoxy)isoxazol-5-yl)-3-methylbutanoyl)-4-hydroxy-N-((S)-1-(4-(4-methylthiazol-5-yl)phenyl)ethyl)pyrrolidine-2-carboxamide], the greatest degradation seen (Dmax) under setting [3] was above 75%. Moreover, under setting [5], the DC50 was below 2.5 nM. For `Cc1ncsc1-c1ccc(CNC(=O)[C@@H]2C[C@@H](O)CN2C(=O)[C@@H](NC(=O)COCCOCCN2CCN(CCCc3cc(N4C5CCC4CN(c4cc(-c6ccccc6O)nnc4N)C5)ccn3)CC2)C(C)(C)C)cc1` [compound 40, (2S,4R)-1-[(2S)-2-[2-[2-(2-[4-[3-(4-[3-[3-amino-6-(2-hydroxyphenyl)pyridazin-4-yl]-3,8-diazabicyclo[3.2.1]octan-8-yl]pyridin-2-yl)propyl]piperazin-1-yl]ethoxy)ethoxy]acetamido]-3,3-dimethylbutanoyl]-4-hydroxy-N-[[4-(4-methyl-1,3-thiazol-5-yl)phenyl]methyl]pyrrolidine-2-carboxamide], the half-maximal degradation concentration (DC50) under setting [4] is above 30 nM. Moreover, the Dmax under setting [6] is below 50%.

With `Cc1ncsc1-c1ccc([C@H](C)NC(=O)[C@@H]2C[C@@H](O)CN2C(=O)[C@@H](NC(=O)COC2CN(CCN3CCN(CCCc4cc(N5C6CCC5CN(c5cc(-c7ccccc7O)nnc5N)C6)ccn4)CC3)C2)C(C)(C)C)cc1` [compound 49, (2S,4R)-1-((2S)-2-(2-((1-(2-(4-(3-(4-(3-(3-amino-6-(2-hydroxyphenyl)pyridazin-4-yl)-3,8-diazabicyclo[3.2.1]octan-8-yl)pyridin-2-yl)propyl)piperazin-1-yl)ethyl)azetidin-3-yl)oxy)acetamido)-3,3-dimethylbutanoyl)-4-hydroxy-N-((S)-1-(4-(4-methylthiazol-5-yl)phenyl)ethyl)pyrrolidine-2-carboxamide], the DC50 under setting [4] is above 30 nM. Moreover, the Dmax under setting [6] was in the range of 50 to 75%. Take `Cc1ncsc1-c1ccc([C@H](C)NC(=O)[C@@H]2C[C@@H](O)CN2C(=O)[C@@H](c2onc(OCCN3CCC(O[C@H]4C[C@H](Oc5cc(N6C7CCC6CN(c6cc(-c8ccccc8O)nnc6N)C7)ccn5)C4)CC3)c2F)C(C)C)cc1` [compound 209, (2S,4R)-1-((2R)-2-(3-(2-(4-((1r,3R)-3-((4-(3-(3-amino-6-(2-hydroxyphenyl)pyridazin-4-yl)-3,8-diazabicyclo[3.2.1]octan-8-yl)pyridin-2-yl)oxy)cyclobutoxy)piperidin-1-yl)ethoxy)-4-fluoroisoxazol-5-yl)-3-methylbutanoyl)-4-hydroxy-N-((S)-1-(4-(4-methylthiazol-5-yl)phenyl)ethyl)pyrrolidine-2-carboxamide]: the DC50 under setting [4] was below 2.5 nM. In addition, under setting [7], the Dmax is above 75%. On the same counts, the results for `Cc1ncsc1-c1ccc([C@H](C)NC(=O)[C@@H]2C[C@@H](O)CN2C(=O)[C@@H](c2cc(OCCN3CCN(CC#CCN4CCOC5(CCN(c6cc(-c7ccccc7O)nnc6N)CC5)C4)CC3)no2)C(C)C)cc1` [compound 188, (2S,4R)-1-((R)-2-(3-(2-(4-(4-(9-(3-amino-6-(2-hydroxyphenyl)pyridazin-4-yl)-1-oxa-4,9-diazaspiro[5.5]undecan-4-yl)but-2-yn-1-yl)piperazin-1-yl)ethoxy)isoxazol-5-yl)-3-methylbutanoyl)-4-hydroxy-N-((S)-1-(4-(4-methylthiazol-5-yl)phenyl)ethyl)pyrrolidine-2-carboxamide] are below 2.5 nM and above 75%. Regarding `Cc1ncsc1-c1ccc([C@H](C)NC(=O)[C@@H]2C[C@@H](O)CN2C(=O)[C@H](c2cc(N3CC(COCCOc4cc(N5C6CCC5CN(c5cc(-c7ccccc7O)nnc5N)C6)ccn4)C3)no2)C(C)C)cc1` [compound 549, (2S,4R)-1-((2S)-2-(3-(3-((2-((4-(3-(3-amino-6-(2-hydroxyphenyl)pyridazin-4-yl)-3,8-diazabicyclo[3.2.1]octan-8-yl)pyridin-2-yl)oxy)ethoxy)methyl)azetidin-1-yl)isoxazol-5-yl)-3-methylbutanoyl)-4-hydroxy-N-((S)-1-(4-(4-methylthiazol-5-yl)phenyl)ethyl)pyrrolidine-2-carboxamide], under setting [2], the half-maximal degradation concentration (DC50) was above 30 nM.

For the compound `Cc1ncsc1-c1ccc([C@H](C)NC(=O)[C@@H]2C[C@@H](O)CN2C(=O)[C@@H](NC(=O)COCCN2CCC(O[C@H]3C[C@H](Oc4cc(N5C6CCC5CN(c5cc(-c7ccccc7O)nnc5N)C6)ccn4)C3)CC2)C(C)(C)C)cc1` [compound 183, (2S,4R)-1-((2S)-2-(2-(2-(4-((1r,3S)-3-((4-(3-(3-amino-6-(2-hydroxyphenyl)pyridazin-4-yl)-3,8-diazabicyclo[3.2.1]octan-8-yl)pyridin-2-yl)oxy)cyclobutoxy)piperidin-1-yl)ethoxy)acetamido)-3,3-dimethylbutanoyl)-4-hydroxy-N-((S)-1-(4-(4-methylthiazol-5-yl)phenyl)ethyl)pyrrolidine-2-carboxamide], the half-maximal degradation concentration (DC50) under setting [4] is below 2.5 nM. For the same compound, the Dmax under setting [7] was above 75%.

As a reminder, the Dmax is the greatest extent of degradation seen. For orientation: DC50 means the concentration at which degradation of the target reaches its halfway point.
